Measured values published in US5043326A, “Inclusion complex of 7-isopropoxy-isoflavon formed with cyclodextrin, the preparation thereof and pharmaceutical compositions containing these compounds as active ingredients” (priority 1985, dated 1991).
Values after ≈ are worked out from the molar mass of the structure shown.

Key:
[1] = Solubility of Ipriflavon in aqueous cyclodextrin solutions (4 days agitation, 25° C., photometric); format: physicochemical
Protocol: One of the evidence of the formation of inclusion complex between Ipriflavon and cyclodextrin is that the cyclodextrin increases the solubility of Ipriflavon in aqueous solutions. In order to determine this property, 10 mg of Ipriflavon, cyclodextrin in different amounts and 5 ml of distilled water were charged into 10 ml test tubes. After closing, the tubes were agitated for 4 days at 25° C. at 325 rpm, thereafter the samples were filtered on a G4 glass-filter and the filtrates were photometrically analysed in 50% aqueous ethanol solution.

physchem = format: physicochemical; conditions: for Concentration of dissolved Ipriflavon: 37° C.
Protocol: To carry out the dissolution tests 250 ml of distilled water were charged into a 500 ml flask and heated to 37° C. Thereafter the product in an amount corresponding to 50 mg of active ingredient was added then the suspension thus obtained was stirred at 1000 rpm using a magnetic stirrer. At fixed intervals 2-6 ml of samples were taken and filtered on glass-filter and after diluting, the filtrates were measured photometrically in an 1:1 mixture of water:ethanol.

[2] = Resorption test in rats: plasma level of unchanged Ipriflavon (HPLC); format: in vivo, CFY male rats; conditions: rat
Protocol: (§1) To the resorption tests CFY male rats weighing 170-200 g were used. After a 16-hour fasting period, Ipriflavon in a dose of 25 mg/kg (group A), Ipriflavon-β-cyclodextrin inclusion complex prepared according to Example 1 (group B) and Ipriflavon-β-cyclodextrin mixture (group C)--both containing the β-cyclodextrin in equimolar ratio to the active ingredient--were administered, thereafter rat-food and water were given "ad libitum" to the animals.
(§2) The materials to be tested were mixed for 5 minutes in 2 ml of 1% methylcellulose solution and administered by the aid of a stomach tube. The plasma samples were collected 10, 30 minutes and 1, 2 and 4 hours after the treatment using mortal haemorrhage after transecting the Vena femoralis of the animals anasthesied with ether. The blood samples were charged into heparinized tubes, centrifuged, nutsch-filtered and stored deep-freezed, in vial until further use.
In order to collect urinary samples, after treatment the animals were placed into individual metabolism vessel and urine and faeces were separately collected for 24 hours. The urinary samples were stored deep-freezed until further use. The concentration of the unchanged Ipriflavon and its main metabolite (7-hydroxy-isoflavon) in the urinary and the plasma samples was followed by HPLC.
To carry out the HPLC, liquid chromatography of typ RP-18 and LiChrosorb reverse phase column (grain size in case of plasma sample: 10 μm and in case of urinary samples: 5 μm) were used. Flow velocity of eluent: 1.5 ml/min, wave length of UV detector: 254 nm, paper-velocity: 0.2 cm/min.
In case of plasma samples a mixture of 0.05M acetate buffer (pH=3):acetonitrile=60:40 and in case of urinary samples a mixture of acetate buffer:acetonitril=55:45 were used as eluent. The internal standard was ethanolic solution of 2-methyl-7-methoxy-4'-nitro-isoflavon (100 μg/ml) and to the calibration, solutions comprising 100 μg/ml and 10 μg/ml of 7-hydroxy-isoflavon in methanol were used.
To analyse the plasma samples, to 1 ml of plasma 1 ml acetate-buffer (pH=5) and β-glucuronidase (arylsulfonase) enzyme (100 FU) diluted to 10-fold with 10 μl of distilled water were added and incubated at 37° C. for 24 hours. After incubation, 50 μl of 2N NaOH were added and the mixture was extracted with benzene and centrifuged. The organic phase was separated, the aqueous phase was made acidic with […] of 1N HCl, and after adding 50 μl of internal standard solution it was repeatedly extracted with 8 ml benzene. The organic phase was centrifuged,evaporated, the residue was dissolved in 100 μl of eluent and 50 μl of this solution were injected and measured.
Equation of the calibration curve: y=8.2x-0.08; correlation coefficient: 0.9999.
In Table IV the concentration values of unchanged Ipriflavon and in Table V the concentration values of the main metabolite determined in the blood of animals are shown. To group A Ipriflavon per se, to group B the inclusion complex according to the invention and to group C the mixture of Ipriflavon and β-cyclodextrin were administered.

[3] = parameters: species or system CFY male rats; conditions: rat, in vivo, po
Protocol: as §1
The materials to be tested were mixed for 5 minutes in 2 ml of 1% methylcellulose solution and administered by the aid of a stomach tube. The plasma samples were collected 10, 30 minutes and 1, 2 and 4 hours after the treatment using mortal haemorrhage after transecting the Vena femoralis of the animals anasthesied with ether. […]
To analyse the plasma samples, to 1 ml of plasma 1 ml acetate-buffer (pH=5) and β-glucuronidase (arylsulfonase) enzyme (100 FU) diluted to 10-fold with 10 μl of distilled water were added and incubated at 37° C. for 24 hours. […] The organic phase was centrifuged,evaporated, the residue was dissolved in 100 μl of eluent and 50 μl of this solution were injected and measured. […]
In Table IV the concentration values of unchanged Ipriflavon and in Table V the concentration values of the main metabolite determined in the blood of animals are shown. […]

[4] = Resorption test in rats: plasma level of unchanged Ipriflavon (HPLC); parameters: species or system CFY male rats; conditions: rat, in vivo, po, 25 mg/kg, 1440 min
[5] = parameters: species or system CFY male rats; conditions: rat, in vivo, po, 25 mg/kg, 1440 min
[6] = cited from earlier work
[7] = cited from earlier work; remark: listed apart in the source
[8] = cited from earlier work; remark: listed apart in the source
[9] = Urinary excretion in rats, 24 h (HPLC); format: in vivo, CFY male rats; conditions: rat urine
Protocol: as §1, §2
In order to collect urinary samples, after treatment the animals were placed into individual metabolism vessel and urine and faeces were separately collected for 24 hours. The urinary samples were stored deep-freezed until further use. The concentration of the unchanged Ipriflavon and its main metabolite (7-hydroxy-isoflavon) in the urinary and the plasma samples was followed by HPLC. […]

[10] = in vivo, po, 25 mg/kg, Plasma-level of unchanged Ipriflavon

Compound: CC(C)Oc1ccc2c(=O)c(-c3ccccc3)coc2c1 [Ipriflavon, 7-isopropoxy-isoflavon]
- solubility at 96 h ([1]; 12% aqueous alpha-cyclodextrin, solubility of Ipriflavon in α-cyclodextrin solution): 20 to 22 µg/mL (≈ 71.3 to 78.5 µM)
- increase of solubility in DIMEB ([1]; 15% DIMEB): 1770 -fold
- increase of solubility in TRIMEB ([1]; 15% TRIMEB): 300 -fold
- solubility at 96 h ([1]; 15% aqueous dimeb, solubility in DIMEB solution): 1700 to 2000 µg/mL (≈ 6060 to 7130 µM)
- solubility at 96 h ([1]; 15% aqueous trimeb, solubility in TRIMEB solution): 440 µg/mL (≈ 1570 µM)
- solubility at 96 h ([1]; aqueous α-cd 11 mg/ml, Solubility of Ipriflavon): 4.12 µg/mL (≈ 14.7 µM)
- solubility at 96 h ([1]; aqueous α-cd 13 mg/ml, Solubility of Ipriflavon): 4.68 µg/mL (≈ 16.7 µM)
- solubility at 96 h ([1]; aqueous α-cd 15 mg/ml, Solubility of Ipriflavon): 5.08 µg/mL (≈ 18.1 µM)
- solubility at 96 h ([1]; aqueous α-cd 20 mg/ml, Solubility of Ipriflavon): 6.1 µg/mL (≈ 21.8 µM)
- solubility at 96 h ([1]; aqueous α-cd 30 mg/ml, Solubility of Ipriflavon): 8.19 µg/mL (≈ 29.2 µM)
- solubility at 96 h ([1]; aqueous α-cd 40 mg/ml, Solubility of Ipriflavon): 9.63 µg/mL (≈ 34.4 µM)
- solubility at 96 h ([1]; aqueous α-cd 50 mg/ml, Solubility of Ipriflavon): 10.6 µg/mL (≈ 37.8 µM)
- solubility at 96 h ([1]; aqueous α-cd 70 mg/ml, Solubility of Ipriflavon): 14.8 µg/mL (≈ 52.7 µM)
- solubility at 96 h ([1]; aqueous α-cd 90 mg/ml, Solubility of Ipriflavon): 18.2 µg/mL (≈ 65.1 µM)
- solubility at 96 h ([1]; aqueous α-cd 100 mg/ml, Solubility of Ipriflavon): 21.6 µg/mL (≈ 77.2 µM)
- solubility at 96 h ([1]; aqueous α-cd 110 mg/ml, Solubility of Ipriflavon): 19 µg/mL (≈ 67.9 µM)
- solubility at 96 h ([1]; aqueous α-cd 120 mg/ml, Solubility of Ipriflavon): 23.6 µg/mL (≈ 84.4 µM)
- solubility at 96 h ([1]; aqueous β-cd 1 mg/ml, Solubility of Ipriflavon): 2.52 µg/mL (≈ 8.99 µM)
- solubility at 96 h ([1]; aqueous β-cd 3 mg/ml, Solubility of Ipriflavon): 7.03 µg/mL (≈ 25.1 µM)
- solubility at 96 h ([1]; aqueous β-cd 5 mg/ml, Solubility of Ipriflavon): 11.4 µg/mL (≈ 40.8 µM)
- solubility at 96 h ([1]; aqueous β-cd 7 mg/ml, Solubility of Ipriflavon): 15.9 µg/mL (≈ 56.8 µM)
- solubility at 96 h ([1]; aqueous β-cd 9 mg/ml, Solubility of Ipriflavon): 19.5 µg/mL (≈ 69.6 µM)
- solubility at 96 h ([1]; aqueous β-cd 11 mg/ml, Solubility of Ipriflavon): 15.2 µg/mL (≈ 54.3 µM)
- solubility at 96 h ([1]; aqueous β-cd 13 mg/ml, Solubility of Ipriflavon): 15.5 µg/mL (≈ 55.2 µM)
- solubility at 96 h ([1]; aqueous β-cd 15 mg/ml, Solubility of Ipriflavon): 15.8 µg/mL (≈ 56.2 µM)
- solubility at 96 h ([1]; aqueous β-cd 20 mg/ml, Solubility of Ipriflavon): 13.5 µg/mL (≈ 48 µM)
- solubility at 96 h ([1]; aqueous β-cd 30 mg/ml, Solubility of Ipriflavon): 7.59 µg/mL (≈ 27.1 µM)
- solubility at 96 h ([1]; aqueous β-cd 40 mg/ml, Solubility of Ipriflavon): 6.2 µg/mL (≈ 22.1 µM)
- solubility at 96 h ([1]; aqueous β-cd 50 mg/ml, Solubility of Ipriflavon): 5.44 µg/mL (≈ 19.4 µM)
- solubility at 96 h ([1]; aqueous β-cd 70 mg/ml, Solubility of Ipriflavon): 6.08 µg/mL (≈ 21.7 µM)
- solubility at 96 h ([1]; aqueous β-cd 90 mg/ml, Solubility of Ipriflavon): 6.93 µg/mL (≈ 24.7 µM)
- solubility at 96 h ([1]; aqueous β-cd 100 mg/ml, Solubility of Ipriflavon): 6.64 µg/mL (≈ 23.7 µM)
- solubility at 96 h ([1]; aqueous β-cd 110 mg/ml, Solubility of Ipriflavon): 5.98 µg/mL (≈ 21.3 µM)
- solubility at 96 h ([1]; aqueous β-cd 120 mg/ml, Solubility of Ipriflavon): 5.66 µg/mL (≈ 20.2 µM)
- solubility at 96 h ([1]; aqueous γ-cd 11 mg/ml, Solubility of Ipriflavon): 2.02 µg/mL (≈ 7.21 µM)
- solubility at 96 h ([1]; aqueous γ-cd 13 mg/ml, Solubility of Ipriflavon): 2.05 µg/mL (≈ 7.31 µM)
- solubility at 96 h ([1]; aqueous γ-cd 15 mg/ml, Solubility of Ipriflavon): 2.16 µg/mL (≈ 7.71 µM)
- solubility at 96 h ([1]; aqueous γ-cd 20 mg/ml, Solubility of Ipriflavon): 2.38 µg/mL (≈ 8.49 µM)
- solubility at 96 h ([1]; aqueous γ-cd 30 mg/ml, Solubility of Ipriflavon): 2.74 µg/mL (≈ 9.77 µM)
- solubility at 96 h ([1]; aqueous γ-cd solution, Solubility of Ipriflavon): 3.26 µg/mL (≈ 11.6 µM)
- solubility at 96 h ([1]; beta-cyclodextrin solution, constant solubility value (solubility limit of the solid inclusion complex in excess Ipriflavon)): 6 µg/mL (≈ 21.4 µM)
- solubility at 96 h ([1]; beta-cyclodextrin solution, solubility of Ipriflavon in β-cyclodextrin solution): 16 to 20 µg/mL (≈ 57.1 to 71.3 µM)
- solubility at 96 h ([1]; distilled water, water, solubility of Ipriflavon in distilled water): 1 to 2 µg/mL (≈ 3.57 to 7.13 µM)
- increase of solubility in β-cyclodextrin solution vs distilled water ([1]; β-cyclodextrin, depending on concentration): ≤ 15 -fold
- increase of solubility in γ-cyclodextrin solution ([1]; γ-cyclodextrin): 3 -fold
- Concentration of dissolved Ipriflavon (physchem; 1 min, distilled water): 435 ng/mL
- Concentration of dissolved Ipriflavon (physchem; 2 min, distilled water): 327 ng/mL
- Concentration of dissolved Ipriflavon (physchem; 3 min, distilled water): 401 ng/mL
- Concentration of dissolved Ipriflavon (physchem; 5 min, distilled water): 507 ng/mL
- Concentration of dissolved Ipriflavon (physchem; 10 min, distilled water): 882 ng/mL
- Concentration of dissolved Ipriflavon (physchem; 15 min, distilled water): 1123 ng/mL
- Concentration of dissolved Ipriflavon (physchem; 20 min, distilled water): 1197 ng/mL
- Concentration of dissolved Ipriflavon (physchem; 30 min, distilled water): 1423 ng/mL
- Concentration of dissolved Ipriflavon (physchem; 40 min, distilled water): 1508 ng/mL
- Concentration of dissolved Ipriflavon (physchem; 60 min, distilled water): 1621 ng/mL
- Concentration of dissolved Ipriflavon (physchem; 90 min, distilled water): 1525 ng/mL
- Concentration of dissolved Ipriflavon (physchem; 120 min, distilled water): 1482 ng/mL
- solubility (physchem; distilled water, water): ~1.5 µg/mL (≈ 5.35 µM)
- time to reach the saturation value (physchem; free active ingredient): 40 to 50 min
- Plasma-level of unchanged Ipriflavon ([2]; in vivo, po, 25 mg/kg, 10.2 min): 0 µg/mL
- Plasma-level of unchanged Ipriflavon ([2]; in vivo, po, 25 mg/kg, 30 min): 0 µg/mL
- Plasma-level of unchanged Ipriflavon ([2]; in vivo, po, 25 mg/kg, 60 min): 0 µg/mL
- Plasma-level of unchanged Ipriflavon ([2]; in vivo, po, 25 mg/kg, 120 min): 0 µg/mL
- Plasma-level of unchanged Ipriflavon ([2]; in vivo, po, 25 mg/kg, 2 h): 0.095 µg/mL
- Plasma-level of unchanged Ipriflavon ([2]; in vivo, po, 25 mg/kg, 240 min): 0 µg/mL
- concentration at 2 h [2, 10]: 78 ng/mL
- concentration at 4 h [2, 10]: 41 ng/mL
- detection of unchanged Ipriflavon in plasma ([2]; p.o.): can be detected only in few periods (at 2 and 4 hours)
- plasma level of main metabolite [3]: 200 to 1000 ng/mL
- Plasma-level of unchanged Ipriflavon [4]: 0 µg/mL
- Plasma-level of main metabolite (7-hydoxy-isoflavon) [5]: 0 µg/mL
- solubility in water [6]: 1 to 2 µg/mL
- HPLC analysis of the blood ([7]; beagle dogs): metabolites thereof (7-hydroxy-isoflavon as main metabolite) appear in the blood
- radioactive material administered discharged with the urine ([7]; dog, in vivo): 12%
- resorption of the main metabolite ([8]; dog, in vivo, po): 152 ng·h/mL
- Ipriflavon in the blood ([8]; dogs, oral): cannot be detected in the blood

Compound: O=c1c(-c2ccccc2)coc2cc(O)ccc12 [7-hydroxy-isoflavon]
- quantity of main metabolite of the total quantity of the metabolite [9]: 50-55%
